Measured values reported in PMC6321168, “Comparative Study on Excretive Characterization of Main Components in Herb Pair Notoginseng-Safflower and Single Herbs by LC–MS/MS” (Pharmaceutics, 2018).

Assay: Urinary excretion study in rats after oral NS, SF or CNS (LC–MS/MS)
Format: in vivo
Conditions: for concentration at 2 h / concentration at 4 h / concentration at 8 h / concentration at 12 h / concentration at 24 h / concentration at 36 h / concentration at 48 h / concentration at 72 h / concentration at 96 h / concentration at 120 h / concentration at 6 h: male, Sprague Dawley, rat, urine, oral; for Accumulative excretion amount / Accumulative excretion percentage / Excretion amount: rat urine
Experimental: The animal room was set at constant temperature of 20 ± 2 °C with humidity of 50 ± 20% and 12/12 h light/dark cycle.
Eighteen male rats were fasted for 12 h before starting the experiment. The rats were divided into three groups at random (n = 6) and received NS (60 mg/kg), SF (50 mg/kg), and NS (60 mg/kg) + SF (50 mg/kg), respectively, by oral gavage. The rats were placed in separate metabolic cages. The urine samples were collected at 0–2, 2–4, 4–6, 6–8, 8–12, 12–24, 24–36, 36–48, 48–72, 72–96, and 96–120 h. The feces samples were collected at 0–4, 4–8, 8–12, 12–24, 24–36, 36–48, 48–72, 72–96, and 96–120 h. The urine volume was recorded and the dry feces were measured for each collection period. Samples were stored at −80 °C until analysis.
An aliquot of 200 μL urine sample was mixed with 10 μL of IS and evaporated to dryness with a ZLS-2 vacuum centrifugal concentrator (Herexi Co., Ltd., Changsha, Hunan, China). The residue was reconstituted in 100 μL of 50% methanol vortexed for 2 min and centrifuged at 12,000 rpm for 15 min. Finally, a 1 μL aliquot was injected for LC–MS analysis.
Ultra fast liquid chromatography (UFLC) analysis was performed using a Shimadzu UFLC system (DGU-20A3R Degasser; LC-20AD pump; SIL-20AXR Autosampler; CTO-20AC Column Oven) (Nakagyo-Ku, Koyoto, Japan). […] Because of the different endogenous substances in the urine and feces samples, different elution gradients were used to alleviate the matrix effects for the analytes.
The mass spectrometric detection was performed on an ABSciex 4500 Qtrap mass spectrometer (ABSciex, Foster City, CA, USA) equipped with a negative electrospray ionization (ESI) interface using multiple reaction monitoring (MRM). The MS parameters were optimized under the selected ion monitoring conditions as follows: curtain gas, 35 psi; ionspray voltage, 4500 V; turbo gas temperature, 450 °C; GS1, 45 psi; GS2, 45 psi. All data were acquired and analyzed by Analyst software (Versions 1.6.2) from ABSciex.
The accumulative excretion percentage was calculated for each analyte as follows. Excretion at time (t) = [concentration of the analyte (ng/mL) at t] × total urine (or feces) volume (mL) at t. The cumulative excretion up to time t (mg) was expressed as a percent (%) cumulative excretion by dividing by the total amount of the analyte ingested (mg): % Cumulative Excretion = 100 × (Σt excretiont) total ingested.

- concentration at 2 h (60 mg/kg, oral NS 60 mg/kg, 2 h): 289 ± 689 ng/mL
- concentration at 4 h (60 mg/kg, oral NS 60 mg/kg, 4 h): 91 ± 119 ng/mL
- concentration at 8 h (60 mg/kg, oral NS 60 mg/kg, 8 h): 40 ± 26 ng/mL
- concentration at 12 h (60 mg/kg, oral NS 60 mg/kg, 12 h): 33 ± 24 ng/mL
- concentration at 24 h (60 mg/kg, oral NS 60 mg/kg, 24 h): 17 ± 34 ng/mL
- concentration at 36 h (60 mg/kg, oral NS 60 mg/kg, 36 h): 15 ± 23 ng/mL
- concentration at 48 h (60 mg/kg, oral NS 60 mg/kg, 48 h): 13 ± 24 ng/mL
- concentration at 72 h (60 mg/kg, oral NS 60 mg/kg, 72 h): 17 ± 37 ng/mL
- concentration at 96 h (60 mg/kg, oral NS 60 mg/kg, 96 h): 7 ± 13 ng/mL
- concentration at 120 h (60 mg/kg, oral NS 60 mg/kg, 120 h): 4 ± 8 ng/mL
- concentration at 2 h (oral CNS 110 mg/kg, 2 h): 86 ± 88 ng/mL
- concentration at 4 h (oral CNS 110 mg/kg, 4 h): 70 ± 89 ng/mL
- concentration at 6 h (oral CNS 110 mg/kg, 6 h): 39 ± 27 ng/mL
- concentration at 8 h (oral CNS 110 mg/kg, 8 h): 41 ± 35 ng/mL
- concentration at 12 h (oral CNS 110 mg/kg, 12 h): 35 ± 41 ng/mL
- concentration at 24 h (oral CNS 110 mg/kg, 24 h): 369 ± 963 ng/mL
- concentration at 36 h (oral CNS 110 mg/kg, 36 h): 24 ± 38 ng/mL
- concentration at 48 h (oral CNS 110 mg/kg, 48 h): 6 ± 7 ng/mL
- concentration at 72 h (oral CNS 110 mg/kg, 72 h): 5 ± 7 ng/mL
- concentration at 96 h (oral CNS 110 mg/kg, 96 h): 3 ± 5 ng/mL
- concentration at 120 h (oral CNS 110 mg/kg, 120 h): 4 ± 8 ng/mL
- concentration at 6 h (oral NS 60 mg/kg, 6 h): 32 ± 30 ng/mL
- Accumulative excretion amount (oral CNS 110 mg/kg, 2 h): 0.133 ± 0.062 µg
- Accumulative excretion percentage (oral CNS 110 mg/kg, 2 h): 0.028±0.013%
- Accumulative excretion amount (oral CNS 110 mg/kg, 4 h): 0.193 ± 0.131 µg
- Accumulative excretion percentage (oral CNS 110 mg/kg, 4 h): 0.041±0.028%
- Excretion amount (oral CNS 110 mg/kg, 4 h): 0.100 ± 0.090 µg
- Accumulative excretion amount (oral CNS 110 mg/kg, 6 h): 0.231 ± 0.118 µg
- Accumulative excretion percentage (oral CNS 110 mg/kg, 6 h): 0.049± 0.025%
- Excretion amount (oral CNS 110 mg/kg, 6 h): 0.064 ± 0.030 µg
- Accumulative excretion amount (oral CNS 110 mg/kg, 8 h): 0.289 ± 0.121 µg
- Accumulative excretion percentage (oral CNS 110 mg/kg, 8 h): 0.061±0.026%
- Excretion amount (oral CNS 110 mg/kg, 8 h): 0.072 ± 0.033 µg
- Accumulative excretion amount (oral CNS 110 mg/kg, 12 h): 0.324 ± 0.110 µg
- Accumulative excretion percentage (oral CNS 110 mg/kg, 12 h): 0.069±0.023%
- Excretion amount (oral CNS 110 mg/kg, 12 h): 0.035 ± 0.015 µg
- Accumulative excretion amount (oral CNS 110 mg/kg, 24 h): 0.381 ± 0.153 µg
- Accumulative excretion percentage (oral CNS 110 mg/kg, 24 h): 0.081±0.032%
- Excretion amount (oral CNS 110 mg/kg, 24 h): 0.058 ± 0.054 µg
- Accumulative excretion amount (oral CNS 110 mg/kg, 36 h): 0.411 ± 0.177 µg
- Accumulative excretion percentage (oral CNS 110 mg/kg, 36 h): 0.087±0.037%
- Excretion amount (oral CNS 110 mg/kg, 36 h): 0.030 ± 0.037 µg
- Accumulative excretion amount (oral CNS 110 mg/kg, 48 h): 0.447 ± 0.206 µg
- Accumulative excretion percentage (oral CNS 110 mg/kg, 48 h): 0.095±0.044%
- Excretion amount (oral CNS 110 mg/kg, 48 h): 0.03 ± 0.038 µg
- Accumulative excretion amount (oral CNS 110 mg/kg, 72 h): 0.460 ± 0.207 µg
- Accumulative excretion percentage (oral CNS 110 mg/kg, 72 h): 0.097±0.044%
- Excretion amount (oral CNS 110 mg/kg, 72 h): 0.013 ± 0.017 µg
- Accumulative excretion amount (oral CNS 110 mg/kg, 96 h): 0.468 ± 0.217 µg
- Accumulative excretion percentage (oral CNS 110 mg/kg, 96 h): 0.099±0.046%
- Excretion amount (oral CNS 110 mg/kg, 96 h): 0.008 ± 0.012 µg
- Accumulative excretion amount (oral CNS 110 mg/kg, 120 h): 0.472 ± 0.219 µg
- Accumulative excretion percentage (oral CNS 110 mg/kg, 120 h): 0.100±0.046%
- Excretion amount (oral CNS 110 mg/kg, 120 h): 0.004 ± 0.005 µg
- Accumulative excretion amount (oral NS 60 mg/kg, 2 h): 0.304 ± 0.161 µg
- Accumulative excretion percentage (oral NS 60 mg/kg, 2 h): 0.064±0.030%
- Excretion amount (oral NS 60 mg/kg, 2 h): 0.304 ± 0.161 µg
- Accumulative excretion amount (oral NS 60 mg/kg, 4 h): 0.390 ± 0.199 µg
- Accumulative excretion percentage (oral NS 60 mg/kg, 4 h): 0.072±0.037%
- Excretion amount (oral NS 60 mg/kg, 4 h): 0.129 ± 0.051 µg
- Accumulative excretion amount (oral NS 60 mg/kg, 6 h): 0.509 ± 0.225 µg
- Accumulative excretion percentage (oral NS 60 mg/kg, 6 h): 0.096±0.042%
- Excretion amount (oral NS 60 mg/kg, 6 h): 0.143 ± 0.125 µg
- Accumulative excretion amount (oral NS 60 mg/kg, 8 h): 0.625 ± 0.321 µg
- Accumulative excretion percentage (oral NS 60 mg/kg, 8 h): 0.127±0.059%
- Excretion amount (oral NS 60 mg/kg, 8 h): 0.173 ± 0.121 µg
- Accumulative excretion amount (oral NS 60 mg/kg, 12 h): 0.721 ± 0.406 µg
- Accumulative excretion percentage (oral NS 60 mg/kg, 12 h): 0.138±0.075%
- Excretion amount (oral NS 60 mg/kg, 12 h): 0.096 ± 0.087 µg
- Accumulative excretion amount (oral NS 60 mg/kg, 24 h): 0.745 ± 0.403 µg
- Accumulative excretion percentage (oral NS 60 mg/kg, 24 h): 0.149±0.074%
- Excretion amount (oral NS 60 mg/kg, 24 h): 0.024 ± 0.015 µg
- Accumulative excretion amount (oral NS 60 mg/kg, 36 h): 0.782 ± 0.377 µg
- Accumulative excretion percentage (oral NS 60 mg/kg, 36 h): 0.141±0.070%
- Excretion amount (oral NS 60 mg/kg, 36 h): 0.044 ± 0.046 µg
- Accumulative excretion amount (oral NS 60 mg/kg, 48 h): 0.802 ± 0.380 µg
- Accumulative excretion percentage (oral NS 60 mg/kg, 48 h): 0.152±0.070%
- Excretion amount (oral NS 60 mg/kg, 48 h): 0.020 ± 0.022 µg
- Accumulative excretion amount (oral NS 60 mg/kg, 72 h): 0.809 ± 0.391 µg
- Accumulative excretion percentage (oral NS 60 mg/kg, 72 h): 0.156±0.072%
- Excretion amount (oral NS 60 mg/kg, 72 h): 0.007 ± 0.017 µg
- Accumulative excretion amount (oral NS 60 mg/kg, 96 h): 0.814 ± 0.399 µg
- Accumulative excretion percentage (oral NS 60 mg/kg, 96 h): 0.154±0.074%
- Excretion amount (oral NS 60 mg/kg, 96 h): 0.005 ± 0.010 µg
- Accumulative excretion amount (oral NS 60 mg/kg, 120 h): 0.819 ± 0.408 µg
- Accumulative excretion percentage (oral NS 60 mg/kg, 120 h): 0.154±0.075%
- Excretion amount (oral NS 60 mg/kg, 120 h): 0.004 ± 0.010 µg
SMILES: CC(C)=CCC[C@](C)(O[C@@H]1O[C@H](CO)[C@@H](O)[C@H](O)[C@H]1O)[C@H]1CC[C@]2(C)[C@@H]1[C@H](O)C[C@@H]1[C@@]3(C)CC[C@H](O)C(C)(C)[C@@H]3[C@@H](O[C@@H]3O[C@H](CO)[C@@H](O)[C@H](O)[C@H]3O[C@@H]3O[C@@H](C)[C@H](O)[C@@H](O)[C@H]3O)C[C@]12C [ginsenoside Re]
